Assay results from PubChem BioAssay AID1845211 (Molecular Pharmacology Branch, DTP, NCI, 2023).
pIC50: −log10 of the molar value. “And” between values parts separate entries of the source, which are not always exact repeats. Equal entries are not always repeated.

System: NCI-H322M multicellular tumor spheroids, viability (% test/control)
Experiment: Anticancer human tumor NCI-H322M cell line growth inhibition;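 as to viability, T/C: spheroids exposed to compound for seven days before readout; 100% = DMSO vehicle control wells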
Settings: for viability, T/C: stronger effect = lower value
Source text: Multicellular complex tumor spheroid response to DNA repair inhibitors in combination with DNA-damaging drugs
This study explores the anticancer activities of DNA-damaging drugs and inhibitors of DNA damage repair, both as single agents and in combinations. Complex tumor spheroids comprised of malignant cells, endothelial cells and mesenchymal stem cells served as an in vitro model for human solid tumors. This model system incorporates physiologically relevant features and patient-derived or established malignant cell lines with clinically relevant genetic alterations from many tumor types. Twenty-six patient-derived or established malignant cell lines were evaluated representing sarcoma, melanoma, small cell lung cancer (SCLC), non-small cell lung cancer (NSCLC), as well as bladder, ovarian and pancreatic cancers. The concentration ranges selected for each drug and investigational agent were based upon clinically achievable concentrations if the clinical Cmax of the agent was known.
Compounds. The drugs and compounds olaparib (NSC753686), talazoparib (NSC767125), berzosertib (NSC777718), elimusertib (NSC800525), nedisertib (NSC802822), VX-984 (NSC792969), AZD-1390 (NSC803789), temozolomide (NSC362856), topotecan (NSC609699), trabectedin (NSC813783), staurosporine (NSC755774), and gemcitabine (NSC613327) were obtained from the National Cancer Institute (NCI) Developmental Therapeutics Program Chemical Repository. The FDA-approved anticancer drug set is available from the Developmental Therapeutics Program at https://dtp.cancer.gov/organization/dscb/obtaining/available_plates.htm. […] The stock solutions were prepared in dimethyl sulfoxide (DMSO, Sigma-Aldrich, St. Louis, MO, cat. D2650) at 400-fold the tested concentration and stored at -70 degrees C. Prior to their use, the stock solutions were diluted in fresh medium and the final DMSO concentration in the assay was 0.25% (v/v). All drugs and investigational agents were tested over a range starting from a high concentration at or near the clinical Cmax and decreasing in half-log increments. If the clinical Cmax for an agent had not been determined, the highest concentration tested was 10 microM.
Cell Lines. The patient-derived cancer cell (PDC) lines: 156681-154-R-J1-PDC, 283228-195-R-J1-PDC, 287954-098-R-J1-PDC, 292921-168-R-J2-PDC, 349418-098-R-PDC, 425362-245-T-J1-PDC, 556581-035-R-J1-PDC, and BL0293-F563-PDC were received from the NCI Patient-Derived Models Repository (PDMR, https://pdmr.cancer.gov). The established cell lines HS-SY-2 (RRID:CVCL_8719), MPNST, and SYO-1 (RRID:CVCL_7146) were obtained from the Sloan Kettering Institute. The alveolar soft parts sarcoma cell line ASPS-1 (RRID:CVCL_S738) was established at the NCI and grown from internal seed stocks. The following established cell lines were purchased from the American Type Culture Collection (ATCC, Manassas, VA): G-401 (ATCC, cat. CRL-1441, RRID:CVCL_0270), SW982 (ATCC, cat. HTB-93, RRID:CVCL_1734), VA-ES-BJ (ATCC, cat. CRL-2138, RRID:CVCL_1785), NCI-H719 (ATCC, cat. CRL-5837, RRID:CVCL_1582), NCI-H196 (ATCC, cat. CRL-5823, RRID:CVCL_1509), NCI-H841 (ATCC, cat. CRL-5845, RRID:CVCL_1595), NCI-H1618 (ATCC, cat. CRL-5879, RRID:CVCL_1480), NCI-H1876 (ATCC, cat. CRL-5902, RRID:CVCL_1503), DMS 114 (ATCC, cat. CRL-2066; RRID:CVCL_1174), NCI-H211 (ATCC, cat. CRL-5824; RRID:CVCL_1529), and SW 1271 (ATCC, cat. CRL-2177, RRID:CVCL_1716). The small cell lung cancer cell line COR-L88 was purchased from Sigma-Aldrich (cat. 92031917-1VL, RRID:CVCL_1141). The non-small cell lung cancer cell lines NCI-H226 (RRID:CVCL_1544) and NCI-H322M (RRID:CVCL_1557) were established at the NCI and grown from internal seed stocks. Pooled donor human umbilical vein endothelial cells (HUVEC, Lonza, cat. CC-2519) and human mesenchymal stem cells (hMSC, Lonza, cat. PT-2501) were purchased from Lonza (Walkersville, MD).
Cell Culture. All cells were maintained in an incubator at 37 degrees C and 5% CO2 with 95% humidity. […]

Structure (SMILES): Cn1ncnc1[C@H]1c2n[nH]c(=O)c3cc(F)cc(c23)N[C@@H]1c1ccc(F)cc1
- viability, T/C (compound 0.00949 µM): 90.1% and 93.2% and 85.8%
- viability, T/C (compound 0.03 µM): 88.6% and 91.6% and 90.2%
- viability, T/C (compound 0.0949 µM): 79.9% and 77.7% and 81%
- viability, T/C (compound 0.3 µM): 95.3% and 83.4% and 83%
- viability, T/C (compound 0.949 µM): 81.9% and 79.7% and 75.5%
- viability, T/C (compound 3 µM): 70% and 66.2% and 68.7%
- pIC50 (curve of compound): < 5.52

Structure (SMILES): Cn1nnc2c(C(N)=O)ncn2c1=O
- pIC50 (compound alone, run of 12/02/2019): < 4.00

Structure (SMILES): O=C(c1cc(Cc2n[nH]c(=O)c3ccccc23)ccc1F)N1CCN(C(=O)C2CC2)CC1
- viability, T/C (compound 0.0949 µM): 107% and 88% and 75.1%
- viability, T/C (compound 0.3 µM): 98.5% and 83.7% and 107%
- viability, T/C (compound 0.949 µM): 118% and 98.6% and 101%
- viability, T/C (compound 3 µM): 97.2% and 80.6% and 97.6%
- viability, T/C (compound 9.49 µM): 97% and 89.6% and 92.4%
- viability, T/C (compound 30 µM): 103% and 87% and 104%
- pIC50 (curve of compound): < 4.52

Structure (SMILES): [2H]c1nc(C)nc([2H])c1-c1cc(NC[C@@H](C)c2cccc3c(C(=O)NC)ccnc23)ncn1
- viability, T/C (compound 0.0316 µM): 78.5% and 92.3% and 103%
- viability, T/C (compound 0.1 µM): 84.9% and 85.2% and 114%
- viability, T/C (compound 0.316 µM): 81% and 104% and 97.4%
- viability, T/C (compound 1 µM): 85.9% and 101% (2×)
- viability, T/C (compound 3.16 µM): 84.4% and 87.3% and 106%
- viability, T/C (compound 10 µM): 88.4% and 85.9% and 108%
- pIC50 (curve of compound): < 5.00

Structure (SMILES): O=C(c1cc(Cc2n[nH]c(=O)c3ccccc23)ccc1F)N1CCN(C(=O)C2CC2)CC1 + CC[C@@]1(O)C(=O)OCc2c1cc1n(c2=O)Cc2cc3c(CN(C)C)c(O)ccc3nc2-1
- pIC50 (curve of first compound, second compound 0.003 µM): < 4.52
- pIC50 (curve of first compound, second compound 0.00949 µM): < 4.52
- pIC50 (curve of first compound, second compound 0.03 µM): < 4.52
- pIC50 (curve of first compound, second compound 0.0949 µM): < 4.52
- pIC50 (curve of first compound, second compound 0.3 µM): > 7.02
- viability, T/C (second compound 0.003 µM, first compound 0.0949 µM): 77.7%
- viability, T/C (second compound 0.003 µM, first compound 0.3 µM): 78.8%
- viability, T/C (second compound 0.003 µM, first compound 0.949 µM): 79.2%
- viability, T/C (second compound 0.003 µM, first compound 3 µM): 87.3%
- viability, T/C (second compound 0.003 µM, first compound 9.49 µM): 95.8%
- viability, T/C (second compound 0.003 µM, first compound 30 µM): 78.2%
- viability, T/C (second compound 0.00949 µM, first compound 0.0949 µM): 85.7%
- viability, T/C (second compound 0.00949 µM, first compound 0.3 µM): 73%
- viability, T/C (second compound 0.00949 µM, first compound 0.949 µM): 71.6%
- viability, T/C (second compound 0.00949 µM, first compound 3 µM): 77%
- viability, T/C (second compound 0.00949 µM, first compound 9.49 µM): 66.9%
- viability, T/C (second compound 0.00949 µM, first compound 30 µM): 83.5%
- viability, T/C (second compound 0.03 µM, first compound 0.0949 µM): 67.5%
- viability, T/C (second compound 0.03 µM, first compound 0.3 µM): 69.7%
- viability, T/C (second compound 0.03 µM, first compound 0.949 µM): 78.4%
- viability, T/C (second compound 0.03 µM, first compound 3 µM): 78.5%
- viability, T/C (second compound 0.03 µM, first compound 9.49 µM): 78.5%
- viability, T/C (second compound 0.03 µM, first compound 30 µM): 75.4%
- viability, T/C (second compound 0.0949 µM, first compound 0.0949 µM): 56.4%
- viability, T/C (second compound 0.0949 µM, first compound 0.3 µM): 57.6%
- viability, T/C (second compound 0.0949 µM, first compound 0.949 µM): 60.5%
- viability, T/C (second compound 0.0949 µM, first compound 3 µM): 51.4%
- viability, T/C (second compound 0.0949 µM, first compound 9.49 µM): 50.5%
- viability, T/C (second compound 0.0949 µM, first compound 30 µM): 61.1%
- viability, T/C (second compound 0.3 µM, first compound 0.0949 µM): 42.5%
- viability, T/C (second compound 0.3 µM, first compound 0.3 µM): 48.8%
- viability, T/C (second compound 0.3 µM, first compound 0.949 µM): 45.3%
- viability, T/C (second compound 0.3 µM, first compound 3 µM): 49.6%
- viability, T/C (second compound 0.3 µM, first compound 9.49 µM): 55.1%
- viability, T/C (second compound 0.3 µM, first compound 30 µM): 46.5%
